The target in series [1] is T1, PXR (NR1I2) (Homo sapiens, UniProt O75469).
T1 sequence (O75469 1-434): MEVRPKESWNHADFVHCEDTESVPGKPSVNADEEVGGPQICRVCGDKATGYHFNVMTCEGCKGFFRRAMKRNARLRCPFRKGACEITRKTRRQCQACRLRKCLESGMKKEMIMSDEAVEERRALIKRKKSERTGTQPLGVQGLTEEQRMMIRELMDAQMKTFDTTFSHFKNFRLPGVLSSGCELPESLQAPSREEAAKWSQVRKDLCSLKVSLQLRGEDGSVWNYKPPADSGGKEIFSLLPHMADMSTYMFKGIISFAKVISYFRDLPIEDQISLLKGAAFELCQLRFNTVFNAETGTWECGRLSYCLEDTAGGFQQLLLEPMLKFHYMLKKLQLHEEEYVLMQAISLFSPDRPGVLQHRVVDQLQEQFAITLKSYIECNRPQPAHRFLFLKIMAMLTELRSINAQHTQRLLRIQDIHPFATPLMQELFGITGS
The series can be described thus: ATG_PXRE_CIS: Factorial reporter gene assay (HepG2). Format: cell-based. Details: endogenous in cells; host or cells: HepG2. Here is the method: (§1) A multiple reporter transcription unit (MRTU) library consisting of 48 transcription factor binding sites was transfected into the HepG2 human liver hepatoma cell line. In addition to the cis-acting reporter genes (CIS), a modification of the approach was used to generate a trans-system (TRANS) with a mammalian one-hybrid assay consisting of an additional 25 MRTU library reporting the activity of nuclear receptor super-family members. […] These assays were performed by Attagene Inc. (Morrisville NC) under contract to EPA.
(§2) In addition to the cis-acting reporter genes (CIS), a modification of the approach was used to generate a trans-system (TRANS) with a mammalian one-hybrid assay consisting of an additional 25 MRTU library reporting the activity of nuclear receptor super-family members. […] Chemicals were then tested in the CIS and TRANS assays at seven concentrations starting at the MTC and followed by three-fold serial dilutions. These assays were performed by Attagene Inc. (Morrisville NC) under contract to EPA. Detailed description of the methods, data and analysis methods for this dataset will be presented in a separate publication.
For orientation: In a reporter assay the amount or activity of a reporter protein is the signal.

The next series has as its system CYP1A1. The experiment in a line: CLZD_CYP1A1: Change in expression of CYP1A1 (primary human hepatocytes). Format: cell-based. The note with it: 24 hr. As for the experimental part:
(§3) This is a collection of multiplexed gene expression assays focused on Phase I and II xenobiotic metabolizing enzymes and transporters. Human primary cell cultures were treated with chemicals at 5 concentrations (0.004-40 [drawing 42] M) for 6, 24 and 48 hr. Concentration- and time-response profiles of chemicals were measured by the expression of key nuclear receptor target genes, activities of CYP1A enzymes (EROD), and cell morphology. Fourteen gene targets were monitored by quantitative nuclease protection assay including: six representative cytochrome P-450 genes, four hepatic transporters, three Phase II conjugating enzymes, and one endogenous metabolism gene involved in cholesterol synthesis. The target genes associated with nuclear receptor pathways are as follows: [drawing 43] and [drawing 44] with [drawing 45]; [drawing 46] , [drawing 47] , [drawing 48] , [drawing 49] , [drawing 50] and [drawing 51] with [drawing 52]; [drawing 53] , [drawing 54] , [drawing 55] and [drawing 56] with [drawing 57]; [drawing 58] with [drawing 59]; and [drawing 60] with [drawing 61] . Assays were run in primary human hepatocyte cultures by CellzDirect Invitrogen Inc. (Durham, NC), in collaboration with EPA.
(§4) Multiplexed Gene Expression in Human Primary Hepatocytes: This is a collection of multiplexed gene expression assays focused on Phase I and II metabolic enzymes and transporters. […] Fourteen gene targets were monitored by quantitative nuclease protection assay: six representative cytochrome P450 genes, four hepatic transporters, three Phase II conjugating enzymes, and one endogenous metabolism gene involved in cholesterol synthesis. Cells were exposed at 5 concentrations (0.004-40 µM) for 6, 24 or 48 hr. Gene targets are sentinels for five nuclear receptor signaling pathways: AhR, CAR, PXR, FXR, and PPARα. All gene are associated with nuclear receptor pathways: CYP1A1 and CYP1A2 with AHR; ABCB1, ABCG2, CYP2B6, CYP2C9, CYP2C19 and UGT1A1 with CAR; CYP3A4, GSTA2, SLCO1B1 and SULT2A1 with PXR; HMGCS2 with PPARA; and ABCB11 with FXR. […] Detailed description of the methods, data and analysis methods for this dataset will be presented in a separate publication.

Series [2] relates to Rat Liver. To be noted: ref ToxRefDB, cited from earlier work.
For a further series, the system named is Mouse Liver. To be noted: chronic study, ref ToxRefDB, cited from earlier work.
Series [3] deals with Rat Liver. To be noted: ref ToxRefDB, cited from earlier work. The source holds these as a separate data set.
Series [4] has as its system Rat Liver. The note with it: ref ToxRefDB, cited from earlier work. This is another data set of the same source.
The next series deals with CYP2B6. The experiment in a line: CLZD_CYP2B6: Change in expression of CYP2B6 (primary human hepatocytes). The series is classed as cell-based. To be noted: 24 hr. Here is the method:
as §3, §4

The subject of another series is CYP3A4. The series can be described thus: CLZD_CYP3A4: Change in expression of CYP3A4 (primary human hepatocytes). The series is classed as cell-based. The note with it: 24 hr. As for the experimental part: as §3, §4
For series [5], the target named is T2, PPARG (peroxisome proliferator-activated receptor gamma) (Homo sapiens, UniProt P37231).
T2 construct: expressed in transfected cells; host or cells: HepG2
T2 sequence (P37231 1-505): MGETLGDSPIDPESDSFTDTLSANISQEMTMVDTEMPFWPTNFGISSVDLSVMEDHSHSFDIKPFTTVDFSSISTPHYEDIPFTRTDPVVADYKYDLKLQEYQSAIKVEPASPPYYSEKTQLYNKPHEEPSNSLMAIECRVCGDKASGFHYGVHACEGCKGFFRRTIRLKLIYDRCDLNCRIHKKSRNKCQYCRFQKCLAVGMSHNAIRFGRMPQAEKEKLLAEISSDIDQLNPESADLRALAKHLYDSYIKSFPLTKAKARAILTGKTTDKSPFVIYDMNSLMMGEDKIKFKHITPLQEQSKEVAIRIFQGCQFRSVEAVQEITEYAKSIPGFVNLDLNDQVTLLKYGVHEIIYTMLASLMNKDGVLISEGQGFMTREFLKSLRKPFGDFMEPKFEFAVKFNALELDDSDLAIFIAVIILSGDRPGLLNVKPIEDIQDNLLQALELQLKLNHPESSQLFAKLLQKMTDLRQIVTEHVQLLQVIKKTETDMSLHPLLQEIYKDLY
The experiment in a line: ATG_PPARg_TRANS: Factorial reporter gene assay (HepG2). Format: cell-based. As for the experimental part:
as §1, §2

Series [6] has as its target T1, PXR (NR1I2). The series can be described thus: ATG_PXR_TRANS: Factorial reporter gene assay (HepG2). Details: endogenous in cells; host or cells: HepG2. Format: cell-based. Here is the method: as §1, §2
A further series has as its system CYP1A2. The experiment in a line: CLZD_CYP1A2: Change in expression of CYP1A2 (primary human hepatocytes). Format: cell-based. The note with it: 24 hr. Here is the method:
as §3, §4

In series [7] the target is T1, PXR (NR1I2). The series can be described thus: NVS_NR_hPXR: Human PXR Fluormone PXR (SXR) green (cell-free HTS). The series is classed as binding. An excerpt: These are a collection of biochemical assays measuring binding constants and enzyme inhibition values. Chemicals were initially screened at a single concentration in duplicate wells at a concentration of 10 [drawing 63] M for cytochrome P-450 assays and 25 [drawing 64] M for all others. […] These assays were run by Caliper Life Sciences (Hanover, MD) under contract to EPA. Short assay descriptions are available at: http://www.caliperls.com/products/contract-research/in-vitro/.
Cell-free HTS Assays: A collection of biochemical assays measuring binding constants and enzyme inhibition values. […] These assays were run by Caliper Life Sciences (Hanover, MD) under contract to EPA. Short assay descriptions are available at http://www.caliperls.com/products/contract-research/in-vitro/. Values for all endpoints were imported into GeneData Screener (Basel, Switzerland) and normalised to solvent controls from the same plate as the tested compounds and expressed as percent of neutral control. Concentration-response curves were fit in GeneData Screener (Basel, Switzerland) Condeseo module using the Hill equation and AC50 values were determined. […] Detailed description of the methods, data and analysis methods for this dataset are described in a separate publication.

Like-named read-outs stand apart in the source and are kept apart here.

As to `COc1nc(NC(C)C)nc(NC(C)C)n1` [r255], on PXR (NR1I2) [1] (HepG2), the ATG_PXRE_CIS came out at 4.553. Besides, the CLZD_CYP1A1_24 with CYP1A1 was found to be 5.078. For the same compound, the CHR_Rat_Liver_1_AnyLesion with Rat Liver [2] (rat, chronic study) was 0. Also, the CHR_Mouse_Liver_1_AnyLesion in the series with Mouse Liver (mouse) is given as 6. Moreover, the CHR_Rat_Liver_2_PreneoplasticLesion in the series on Rat Liver [3] (rat, chronic study) was 0. In addition, the CHR_Rat_Liver_3_NeoplasticLesion in the series with Rat Liver [4] (rat, chronic study) was 0. In addition, the CLZD_CYP2B6_24 with CYP2B6 is listed as 4.907. The compound further returned a CLZD_CYP3A4_24 with CYP3A4 of 5.515.
In the case of `CC(C)Nc1nc(Cl)nc(NC(C)C)n1` [r260], the ATG_PPARg_TRANS in series [5] (HepG2) worked out at 4.481. On PXR (NR1I2) [6] (HepG2), this compound registered an ATG_PXR_TRANS of 4.469. At PXR (NR1I2) [1] (HepG2), the ATG_PXRE_CIS was 4.569. The compound also displayed a CLZD_CYP1A1_24 with CYP1A1 of 4.988. The CHR_Rat_Liver_1_AnyLesion in the series with Rat Liver [2] (rat, chronic study) is 0. Also, in the series with Mouse Liver (mouse), the CHR_Mouse_Liver_1_AnyLesion was 6. The CHR_Rat_Liver_2_PreneoplasticLesion with Rat Liver [3] (rat, chronic study) is 0. Also, in the series on Rat Liver [4] (rat, chronic study), the CHR_Rat_Liver_3_NeoplasticLesion is on record as 0. The CLZD_CYP2B6_24 in the series on CYP2B6 amounted to 5.165. In the series on CYP3A4, the CLZD_CYP3A4_24 turned out to be 5.248. Further, the CLZD_CYP1A2_24 with CYP1A2 is recorded as 5.254.
Take `COc1nc(C)nc(NC(=O)NS(=O)(=O)c2ccccc2CCC(F)(F)F)n1` [r267]: at PXR (NR1I2) [1] (HepG2 reporter), the ATG_PXRE_CIS stood at 4.328. The CLZD_CYP1A1_24 with CYP1A1 worked out at 5.399. For the same compound, in the series with Rat Liver [2] (chronic study, rat liver), the CHR_Rat_Liver_1_AnyLesion was 0. In the series with Mouse Liver (mouse liver), the CHR_Mouse_Liver_1_AnyLesion is 6. Also, in the series with Rat Liver [3] (chronic study, rat liver), the CHR_Rat_Liver_2_PreneoplasticLesion is 0. The CHR_Rat_Liver_3_NeoplasticLesion with Rat Liver [4] (chronic study, rat liver) is on record as 0. In addition, the CLZD_CYP2B6_24 in the series with CYP2B6 is 5.398. For the same compound, the CLZD_CYP3A4_24 in the series with CYP3A4 is reported as 5.396. The compound also displayed an NVS_NR_hPXR at PXR (NR1I2) [7] of 4.423.
In the case of `CCNc1nc(Cl)nc(NCC)n1` [r284], in [5] (HepG2 reporter), the ATG_PPARg_TRANS amounted to 4.398. In addition, on PXR (NR1I2) [1] (HepG2 reporter), the ATG_PXRE_CIS is recorded as 4.456. For the same compound, the CLZD_CYP1A1_24 in the series with CYP1A1 worked out at 5.018. Besides, the CHR_Rat_Liver_1_AnyLesion with Rat Liver [2] (chronic study, rat liver) is listed as 6. The CHR_Rat_Liver_2_PreneoplasticLesion with Rat Liver [3] (chronic study, rat liver) is listed as 6. The CHR_Rat_Liver_3_NeoplasticLesion with Rat Liver [4] (chronic study, rat liver) was 6. The CLZD_CYP2B6_24 with CYP2B6 was 4.983. In addition, the CLZD_CYP1A2_24 with CYP1A2 is reported as 5.016.
For the compound `Cc1nn(-c2cc(NS(C)(=O)=O)c(Cl)cc2Cl)c(=O)n1C(F)F` [r287], the ATG_PPARg_TRANS in series [5] (HepG2 reporter) came to 4.444. In addition, the ATG_PXR_TRANS at PXR (NR1I2) [6] (HepG2 reporter) turned out to be 4.469. Also, the ATG_PXRE_CIS on PXR (NR1I2) [1] (HepG2 reporter) is reported as 4.409. For the same compound, the CHR_Rat_Liver_1_AnyLesion with Rat Liver [2] (chronic study, rat liver) was 0. Also, in the series with Mouse Liver (mouse liver), the CHR_Mouse_Liver_1_AnyLesion is recorded as 6. In the series on Rat Liver [3] (chronic study, rat liver), the CHR_Rat_Liver_2_PreneoplasticLesion is 0. For the same compound, the CHR_Rat_Liver_3_NeoplasticLesion in the series on Rat Liver [4] (chronic study, rat liver) is listed as 0. The compound also displayed a CLZD_CYP2B6_24 in the series with CYP2B6 of 5.329. In addition, in the series with CYP3A4, the CLZD_CYP3A4_24 was determined as 5.471.
Consider `S=C([S-])NCCNC(=S)[S-].[Zn+2]` [row 207], for which the ATG_PPARg_TRANS in series [5] (HepG2) was 4.409. At PXR (NR1I2) [1] (HepG2), this compound showed an ATG_PXRE_CIS of 4.387. The compound further had a CLZD_CYP1A1_24 in the series on CYP1A1 of 5.214. Further, the CHR_Rat_Liver_1_AnyLesion with Rat Liver [2] (chronic rat study, liver) is recorded as 0. Moreover, the CHR_Rat_Liver_2_PreneoplasticLesion with Rat Liver [3] (chronic rat study, liver) is 0. Moreover, in the series on Rat Liver [4] (chronic rat study, liver), the CHR_Rat_Liver_3_NeoplasticLesion is 0. The compound further gave a CLZD_CYP1A2_24 in the series with CYP1A2 of 5.296. The NVS_NR_hPXR on PXR (NR1I2) [7] is listed as 5.59.

The values are drawn from paper PMC3038857, “Using Nuclear Receptor Activity to Stratify Hepatocarcinogens” (PLoS ONE, 2011).
